The source of these data is patent US4451468A, “Acidiferous 17-normal-pentyl sparteine tartaric and fumaric acid salts pharmaceutical compositions thereof” (Kali-Chemie Pharma GmbH, priority 1979, dated 1984).

Series [1] has as its system isolated auricle of guinea pigs. Kind of series: measurement in the isolated auricle (functional refractory period and contraction force), modified method of Govier. The conditions noted are these: Cavia porcellus, on the average; for EC (125% of initial value): read-out: FRP: concentration at which the functional refractory period is extended to 125% of the initial values; for IC25: read-out: Force: concentration at which the contraction force is reduced to 75% of the initial values. The method, then:
These values were determined by measurements in the isolated auricle of guinea pigs by the method (modified) of Govier, as described by Govier in J. Pharmacol. exp.

For a further series, the system named is mice. Kind of series: LD50 toxicity measurement on mice, i.p., eight days after a single application. The conditions noted are these: calculated by method of Litchfield. The class given is in vivo. The method, then:
The LD50, i.p. values (μmole/1) were determined by toxicity measurements on mice, eight days after a single application. The LD50 values were calculated by the method of J. P. Litchfield et al., J. Pharmacol. exp. Ther. 96, 99 (1949).

Another series relates to humans. The conditions noted are these: application to humans; cited from earlier work.
Series [2] in a line: solubility in water at 22° C. The class given is physicochemical.
Series [3] is described as follows: stability tests (storage at 55° C.; exposure to light) with thin layer chromatography. The conditions noted are these: salts. Type of series: physicochemical. The method, then:
In stability tests, no dissociation was found in thin layer chromatographic investigations. One test included storage for one month at 55° C. and as a second test utilized exposure to light (30 hours, rapid light exposure instrument "SUNTEST," Heraeus Co.).

Series [4] can be described thus: hygroscopicity of crystalline salts. The class given is physicochemical.

Each structure is given as a SMILES string. Values after ≈ are worked out from the molar mass of the structure shown. Counter-ions that a name gives are not always drawn. A value given as a limit tells only on which side of the number the result lay.

Turning to `C1CCN2C[C@@H]3C[C@@H](CN4CCCC[C@@H]34)[C@H]2C1` [Sparteine Sulfate, sparteine sulfate], in series [1], the EC (125% of initial value) was 33.9 µM and the IC25 was 959 µM. In addition, the LD50 i.p. with mice was 202 μmole/1.

For orientation: solubility means the dissolved amount per volume that the medium holds. A higher solubility goes with a readily soluble substance. `CCCCCC1C2CC(CN3CCCCC23)C2CCCCN21` (stereo not drawn) [Pentylsparteine diperchlorate, perchlorate of 17-β-n-pentyl sparteine]: in the series with humans, the “toxicity in humans” value is “leukopenia, agranulocytosis and aplastic anemia”. Also, in series [1], the EC (125% of initial value) came to 7.7 µM and the IC25 worked out at 19.2 µM. For the same molecule, the LD50 i.p. in the series on mice is listed as 283 μmole/1. The molecule also had a solubility in series [2] of 20 mg/mL (≈ 65.7 mM). For the same molecule, the “stability” value in series [3] is “stable salt”.

`CCCCCC1C2CC(CN3CCCCC23)C2CCCCN21` (single isomer, unassigned) [acidiferous 17-β-n-pentyl sparteine-L(+) tartrate]: in series [1], the EC (125% of initial value) stood at 9.1 µM and the IC25 amounted to 22.1 µM. In addition, the LD50 i.p. in the series with mice is 262 μmole/1. The molecule also had a solubility in series [2] greater than 1000 mg/mL.

In the case of `CCCCCC1C2CC(CN3CCCCC23)C2CCCCN21` (stereo not drawn) [sulfate of 17-β-n-pentyl sparteine], the “hygroscopicity” value in series [4] is “extremely hydroscopic”.

Take `CCCCCC1C2CC(CN3CCCCC23)C2CCCCN21` (stereo not shown) [Example 11]: the “hygroscopicity” value in series [4] is reported as “very rapidly dissolved”.

With `CCCCCC1C2CC(CN3CCCCC23)C2CCCCN21` (stereo not drawn) [hydrochloride of 17-β-n-pentyl sparteine], the “hygroscopicity” value in series [4] is recorded as “extremely hydroscopic”.
